{
  "source": "paper PMC8508710",
  "about": "“Biochemical Characterization of 13-Lipoxygenases of Arabidopsis thaliana” (International Journal of Molecular Sciences, 2021)",
  "format_in_all_cases": "biochemical",
  "key": {"LOX4": {"target": "T1, LOX4 (Arabidopsis thaliana, UniProt Q9FNX8)", "T1 sequence (Q9FNX8 71-926)": "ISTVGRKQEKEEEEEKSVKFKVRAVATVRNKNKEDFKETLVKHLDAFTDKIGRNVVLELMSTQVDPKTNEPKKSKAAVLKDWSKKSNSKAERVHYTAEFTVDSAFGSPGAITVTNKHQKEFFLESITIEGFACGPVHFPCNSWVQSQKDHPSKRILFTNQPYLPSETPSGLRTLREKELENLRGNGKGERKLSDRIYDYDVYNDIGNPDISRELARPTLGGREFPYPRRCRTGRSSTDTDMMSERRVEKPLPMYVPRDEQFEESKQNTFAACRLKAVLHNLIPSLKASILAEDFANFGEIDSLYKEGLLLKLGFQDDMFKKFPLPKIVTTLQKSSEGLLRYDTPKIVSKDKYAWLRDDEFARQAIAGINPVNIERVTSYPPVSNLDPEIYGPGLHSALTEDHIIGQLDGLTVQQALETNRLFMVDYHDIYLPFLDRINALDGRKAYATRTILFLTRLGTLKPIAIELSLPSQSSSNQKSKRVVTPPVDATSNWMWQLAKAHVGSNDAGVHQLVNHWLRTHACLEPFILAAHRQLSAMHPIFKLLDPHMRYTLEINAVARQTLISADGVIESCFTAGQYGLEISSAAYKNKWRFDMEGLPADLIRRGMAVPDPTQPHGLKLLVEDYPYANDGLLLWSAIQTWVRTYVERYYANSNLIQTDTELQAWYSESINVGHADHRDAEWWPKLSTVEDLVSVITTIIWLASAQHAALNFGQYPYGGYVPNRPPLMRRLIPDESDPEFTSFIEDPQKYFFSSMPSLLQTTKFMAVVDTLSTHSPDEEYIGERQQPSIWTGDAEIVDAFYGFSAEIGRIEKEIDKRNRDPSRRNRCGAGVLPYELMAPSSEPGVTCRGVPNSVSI", "assay": "LOX4 activity, oxygen electrode (polarography)", "design": "made in house; host or cells: E. coli Nico21(DE3), pET15b", "settings": "for Relative Activity (%) LOX4: 1 mM metal salt, LeA 30 µM in 20 mM HEPES pH 8.0, oxygen consumption vs control without metal"}, "LOX6": {"target": "T2, LOX6 (Arabidopsis thaliana, UniProt Q9CAG3)", "T2 sequence (Q9CAG3 41-917)": "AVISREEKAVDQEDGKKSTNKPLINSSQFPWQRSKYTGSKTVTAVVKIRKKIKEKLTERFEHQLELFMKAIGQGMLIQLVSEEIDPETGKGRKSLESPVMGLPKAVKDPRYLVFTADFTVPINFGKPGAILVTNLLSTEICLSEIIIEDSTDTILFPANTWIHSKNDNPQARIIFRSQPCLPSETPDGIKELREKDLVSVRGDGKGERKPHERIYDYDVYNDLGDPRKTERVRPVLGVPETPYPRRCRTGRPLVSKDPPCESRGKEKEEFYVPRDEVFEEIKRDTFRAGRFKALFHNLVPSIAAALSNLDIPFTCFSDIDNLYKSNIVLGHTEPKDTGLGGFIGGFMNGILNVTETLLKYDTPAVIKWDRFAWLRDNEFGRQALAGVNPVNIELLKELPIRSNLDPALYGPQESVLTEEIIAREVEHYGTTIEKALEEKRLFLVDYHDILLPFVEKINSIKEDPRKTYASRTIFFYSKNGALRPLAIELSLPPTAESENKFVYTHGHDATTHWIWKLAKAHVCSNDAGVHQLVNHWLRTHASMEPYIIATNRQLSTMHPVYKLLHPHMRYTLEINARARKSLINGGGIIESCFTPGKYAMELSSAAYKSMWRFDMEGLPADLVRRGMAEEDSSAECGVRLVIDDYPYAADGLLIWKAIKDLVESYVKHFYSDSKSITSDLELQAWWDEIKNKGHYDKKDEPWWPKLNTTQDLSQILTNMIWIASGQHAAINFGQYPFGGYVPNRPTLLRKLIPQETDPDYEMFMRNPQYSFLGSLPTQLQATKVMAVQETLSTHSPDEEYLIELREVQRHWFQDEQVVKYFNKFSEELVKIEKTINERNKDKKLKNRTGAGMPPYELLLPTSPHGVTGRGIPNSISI", "assay": "LOX6 activity, oxygen electrode (polarography)", "design": "made in house; host or cells: E. coli Nico21(DE3), pEXP5-NT/TOPO", "settings": "for activity at 280 µM: enzyme incubated with 280 µM chemical (1/10 vol of 2.8 mM), injected into 30 µM LeA, 50 mM Tris-HCl pH 7.2, vs solvent control, read-out: Polarography Relative Activity (%) LOX6; for Increase of LOX6-catalyzed oxygen consumption: 1 mM cation, LeA 30 µM, pH 8.0; for Relative Activity (%) LOX6: 1 mM metal salt, LeA 30 µM in 20 mM HEPES pH 8.0, oxygen consumption vs control without metal"}, "LOX3": {"target": "T3, LOX3 (Arabidopsis thaliana, UniProt Q9LNR3)", "T3 sequence (Q9LNR3 71-919)": "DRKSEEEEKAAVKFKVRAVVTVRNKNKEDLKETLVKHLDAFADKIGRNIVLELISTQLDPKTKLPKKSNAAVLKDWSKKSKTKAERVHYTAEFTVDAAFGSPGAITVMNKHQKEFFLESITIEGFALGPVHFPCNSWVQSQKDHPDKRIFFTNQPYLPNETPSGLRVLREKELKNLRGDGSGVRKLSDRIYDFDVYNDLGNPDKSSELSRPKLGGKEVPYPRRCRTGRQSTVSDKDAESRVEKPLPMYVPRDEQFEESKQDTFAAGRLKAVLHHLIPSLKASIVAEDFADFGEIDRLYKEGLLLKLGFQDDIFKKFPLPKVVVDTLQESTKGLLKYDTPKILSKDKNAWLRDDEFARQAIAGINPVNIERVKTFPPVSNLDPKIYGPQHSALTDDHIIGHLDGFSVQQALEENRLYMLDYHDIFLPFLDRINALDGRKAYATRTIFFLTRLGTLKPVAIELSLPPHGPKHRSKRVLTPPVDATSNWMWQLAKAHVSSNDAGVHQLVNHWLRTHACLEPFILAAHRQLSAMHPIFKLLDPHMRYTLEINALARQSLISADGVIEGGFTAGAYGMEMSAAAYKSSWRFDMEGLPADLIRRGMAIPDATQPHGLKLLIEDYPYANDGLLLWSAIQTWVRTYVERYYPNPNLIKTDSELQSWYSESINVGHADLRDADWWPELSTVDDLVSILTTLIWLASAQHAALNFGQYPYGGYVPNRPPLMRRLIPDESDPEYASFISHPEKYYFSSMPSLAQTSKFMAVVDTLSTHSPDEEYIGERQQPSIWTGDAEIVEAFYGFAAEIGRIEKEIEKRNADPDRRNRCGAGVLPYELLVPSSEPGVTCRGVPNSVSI", "assay": "LOX3 activity, oxygen electrode (polarography)", "design": "made in house; host or cells: E. coli Nico21(DE3), pET15b", "settings": "enzyme incubated with 280 µM chemical (1/10 vol of 2.8 mM), injected into 30 µM LeA, 50 mM Tris-HCl pH 7.2; vs solvent control; read-out: Polarography Relative Activity (%) LOX3"}, "[1]": {"settings": "12.2 µg LOX4 + 1.3 mM GSH prior to 140 µM 12-OPDA"}, "[2]": {"settings": "doubled LOX4 concentration + 1.3 mM GSH + 140 µM 12-OPDA"}},
  "data": [
    {"smiles": "CCC=CCC1C(=O)C=CC1CCCCCCCC(=O)O", "note": "(stereo not drawn) [12-OPDA, cis-(+)-12-oxophytodienoic acid]", "values": [
      {"measurement": "Residual LOX4 activity", "setting": "LOX4; 12.2 µg LOX4 + 140 µM 12-OPDA alone", "result": 29.6, "unit": "%"},
      {"measurement": "Oxygen consumption (residual LOX4 activity)", "setting": "LOX4; 12.2 µg LOX4 + 140 µM 12-OPDA alone, control 9.8 ± 0.1", "result": "2.9 ± 0.1", "unit": "nmol/mL/min"},
      {"measurement": "Oxygen consumption (residual LOX4 activity)", "setting": "LOX4; [1]", "result": "3.6 ± 0.1", "unit": "nmol/mL/min"},
      {"measurement": "Residual LOX4 activity", "setting": "LOX4; [1]", "result": 36.7, "unit": "%"},
      {"measurement": "Residual LOX4 activity", "setting": "LOX4; doubled LOX4 concentration + 140 µM 12-OPDA", "result": 34, "unit": "%"},
      {"measurement": "Oxygen consumption (residual LOX4 activity)", "setting": "LOX4; doubled LOX4 concentration + 140 µM 12-OPDA, control 19.7 ± 0.1", "result": "6.7 ± 0.1", "unit": "nmol/mL/min"},
      {"measurement": "Oxygen consumption (residual LOX4 activity)", "setting": "LOX4; [2]", "result": "9.0 ± 0.1", "unit": "nmol/mL/min"},
      {"measurement": "Residual LOX4 activity", "setting": "LOX4; [2]", "result": 45.7, "unit": "%"},
      {"measurement": "Oxygen consumption (residual LOX4 activity)", "setting": "LOX4; doubled LOX4 concentration + 2.6 mM GSH + 140 µM 12-OPDA", "result": "8.5 ± 0.6", "unit": "nmol/mL/min"},
      {"measurement": "activity at 280 µM", "setting": "LOX6", "result": "50 ± 10", "unit": "%"},
      {"measurement": "activity at 280 µM", "setting": "LOX3", "result": "60 ± 5", "unit": "%"}
    ]},
    {"smiles": "[Ca+2].[Cl-].[Cl-]", "note": "[CaCl2]", "values": [
      {"measurement": "Relative Activity (%) LOX4", "setting": "LOX4", "result": "100 ± 4", "unit": "%"},
      {"measurement": "Increase of LOX6-catalyzed oxygen consumption", "setting": "LOX6", "result": 21, "unit": "%"},
      {"measurement": "Relative Activity (%) LOX6", "setting": "LOX6", "result": "121 ± 15", "unit": "%"}
    ]},
    {"smiles": "O=S(=O)([O-])[O-].[Cd+2]", "note": "[CdSO4]", "values": [
      {"measurement": "Relative Activity (%) LOX4", "setting": "LOX4", "result": "no activity"},
      {"measurement": "Relative Activity (%) LOX6", "setting": "LOX6", "result": "no activity"}
    ]},
    {"smiles": "CC/C=C\\CC1C(=O)CCC1CC(=O)OC", "note": "(centres unmarked) [MJ, methyl jasmonate]", "values": [
      {"measurement": "activity at 280 µM", "setting": "LOX6", "result": "94 ± 6", "unit": "%"},
      {"measurement": "activity at 280 µM", "setting": "LOX3", "result": "85 ± 5", "unit": "%"}
    ]},
    {"smiles": "[Cl-].[Cl-].[Mg+2]", "note": "[MgCl2]", "values": [
      {"measurement": "Increase of LOX4 activity in comparison to control", "setting": "LOX4; 1 mM cation, LeA 30 µM, pH 8.0", "result": 6, "unit": "%"},
      {"measurement": "Relative Activity (%) LOX4", "setting": "LOX4", "result": "106 ± 3", "unit": "%"},
      {"measurement": "Increase of LOX6-catalyzed oxygen consumption", "setting": "LOX6", "result": 42, "unit": "%"},
      {"measurement": "Relative Activity (%) LOX6", "setting": "LOX6", "result": "142 ± 15", "unit": "%"}
    ]},
    {"smiles": "O=C(O)c1ccccc1O", "note": "[SA, salicylic acid]", "values": [
      {"measurement": "activity at 280 µM", "setting": "LOX6", "result": "103 ± 5", "unit": "%"},
      {"measurement": "activity at 280 µM", "setting": "LOX3", "result": "101 ± 5", "unit": "%"}
    ]},
    {"smiles": "O=C(O)/C=C/CCCCCCCCC(=O)O", "note": "[TA, traumatic acid]", "values": [
      {"measurement": "activity at 280 µM", "setting": "LOX6", "result": "101 ± 12", "unit": "%"},
      {"measurement": "activity at 280 µM", "setting": "LOX3", "result": "100 ± 5", "unit": "%"}
    ]}
  ]
}
